Target: AM2(V27A) (Influenza A virus, UniProt P0DOF5, V27A)
Assay type: biochemical

Row | Compound | % Activity
1 | CNC1CCC2(CCCCC2)CC1 [Compound 9, Methyl-spiro[5.5]undec-3-yl-amine] | 8 (47.34%) 9 (68.39%)
2 | NC1CCC2(CCCCC2)CC1 [Compound 8, Spiro[5.5]undec-3-ylamine] | 8 (47.34%) 9 (68.39%)
3 | Cl.NC12CC3CC(CC(C3)C1)C2 [amantadine, reference compound] | 99.1%
